Laboratory results published in patent publication US10385069B2, “Imidazo[2,1-B]thiazole and 5,6-dihydroimidazo[2,1-B]thiazole derivatives useful as S100-inhibitors” (Active Biotech AB, priority 2015, dated 2019).

These compounds were tested against T1, interaction between biotinylated human S100A9 and human RAGE-Fc (Homo sapiens, UniProt P06702) (assay: AlphaScreen inhibition assay, biot-hS100A9:hRAGE-Fc). Conditions: biot-hS100A9 pre-incubated with compound 1 h, assay buffer with CaCl2 and ZnCl2.
T1 construct: made in house; host or cells: E. coli
T1 sequence (P06702 1-114): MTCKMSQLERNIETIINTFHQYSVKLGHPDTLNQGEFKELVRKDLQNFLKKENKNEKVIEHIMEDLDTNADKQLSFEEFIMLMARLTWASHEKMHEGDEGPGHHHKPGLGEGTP
Format: binding
Method in brief: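 Biotinylated human S100A9, preincubated with compound, binds human RAGE-Fc on protein A Acceptor beads in HBS-P with CaCl2 and ZnCl2; streptavidin Donor beads added, AlphaScreen signal read. Protein levels set by cross-titration; beads 20 μg/mL final. Percent inhibition versus DMSO control; IC50 from varied compound concentrations.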

| SMILES | IC50 [nM] |
| --- | --- |
| CS(=O)(=O)NC(=O)c1cn2c(n1)sc1c(Cl)c(OC(F)(F)F)ccc12 [Example 220, 9-Chloro-N-methanesulfonyl-10-(trifluoromethoxy)-7-thia-2,5-diazatricyclo[6.4.0.0^2,6]dodeca-1(8),3,5,9,11-pentaene-4-carboxamide] | 770 |
| CC1(C)Cc2c(sc3nc(C(=O)O)cn23)C(C)(C)C1 [Example 32, 9,9,11,11-Tetramethyl-7-thia-2,5-diazatricyclo[6.4.0.0^2,6]dodeca-1(8),3,5-triene-4-carboxylic acid] | 320 |
| O=C(O)c1cn2c(n1)sc1c(Cl)cccc12 [Example 5, 9-Chloro-7-thia-2,5-diazatricyclo[6.4.0.0^2,6]dodeca-1(8),3,5,9,11-pentaene-4-carboxylic acid] | 1300 |
| CS(=O)(=O)NC(=O)c1cn2c(n1)sc1c(Cl)c(Cl)ccc12 [Example 21, 9,10-Dichloro-N-methanesulfonyl-7-thia-2,5-diazatricyclo[6.4.0.0^2,6]dodeca-1(8),3,5,9,11-pentaene-4-carboxamide] | 180 |
| O=C(NS(=O)(=O)CCCO)c1cn2c(n1)sc1c(Cl)c(Cl)ccc12 [Example 28, 9,10-Dichloro-N-(3-hydroxypropanesulfonyl)-7-thia-2,5-diazatricyclo[6.4.0.0^2,6]dodeca-1(8),3,5,9,11-pentaene-4-carboxamide] | 170 |
| O=C(O)c1cn2c(n1)sc1c(F)c(Cl)c(OCCN3CCOCC3)cc12 [Example 289, 10-Chloro-9-fluoro-11-[2-(morpholin-4-yl)ethoxy]-7-thia-2,5-diazatricyclo[6.4.0.0^2,6]dodeca-1(8),3,5,9,11-pentaene-4-carboxylic acid] | 820 |
| O=C(O)C1(CO)CN2C(=N1)Sc1c2ccc(F)c1Cl (centres unmarked) [Example 263, 9-Chloro-10-fluoro-4-(hydroxymethyl)-7-thia-2,5-diazatricyclo[6.4.0.0^2,6]dodeca-1(8),5,9,11-tetraene-4-carboxylic acid] | 1060 |
| CCN(CC)CCCS(=O)(=O)NC(=O)c1cn2c(n1)sc1c(Cl)c(Cl)ccc12 [Example 29, 9,10-Dichloro-N-[3-(diethylamino)propanesulfonyl]-7-thia-2,5-diazatricyclo[6.4.0.0^2,6]dodeca-1(8),3,5,9,11-pentaene-4-carboxamide] | 460 |
| CC1(C)Cc2c(sc3nc(C(=O)O)c(C4CN(C(=O)OC(C)(C)C)C4)n23)C(C)(C)C1 [Example 225, 3-{1-[(tert-Butoxy)carbonyl]azetidin-3-yl}-9,9,11,11-tetramethyl-7-thia-2,5-diazatricyclo[6.4.0.0^2,6]dodeca-1(8),3,5-triene-4-carboxylic acid] | 310 |
| O=C(O)c1nc2sc3c(Cl)c(F)ccc3n2c1NCCN1CCCC1 [Example 277, 9-Chloro-10-fluoro-3-{[2-(pyrrolidin-1-yl)ethyl]amino}-7-thia-2,5-diazatricyclo[6.4.0.0^2,6]dodeca-1(8),3,5,9,11-pentaene-4-carboxylic acid] | 1050 |
| CCN(CC)CCCS(=O)(=O)NC(=O)c1cn2c3c(sc2n1)C(C)(C)CC(C)(C)C3 [Example 54, N-[3-(Diethylamino)propanesulfonyl]-9,9,11,11-tetramethyl-7-thia-2,5-diazatricyclo[6.4.0.0^2,6]dodeca-1(8),3,5-triene-4-carboxamide] | 1360 |
| CS(=O)(=O)NC(=O)Cc1cn2c(n1)sc1c(Cl)c(Cl)ccc12 [Example 30, 2-{9,10-Dichloro-7-thia-2,5-diazatricyclo[6.4.0.0^2,6]dodeca-1(8),3,5,9,11-pentaen-4-yl}-N-methanesulfonylacetamide] | 2910 |
| O=C(O)c1cn2c3c(sc2n1)CC(c1ccccc1)CC3 (centres unmarked) [Example 34, 10-Phenyl-7-thia-2,5-diazatricyclo[6.4.0.0^2,6]dodeca-1(8),3,5-triene-4-carboxylic acid] | 1500 |
| O=C(O)c1cn2c(n1)sc1c(Cl)c(Cl)ccc12 [Example 1, 9,10-Dichloro-7-thia-2,5-diazatricyclo[6.4.0.0^2,6]dodeca-1(8),3,5,9,11-pentaene-4-carboxylic acid] | 130 |

More lines, in order of falling IC50, values ahead:

| IC50 [nM] | SMILES |
| --- | --- |
| 2390 | O=C(O)c1cn2c3c(sc2n1)CCCC3 [Example 31, 7-Thia-2,5-diazatricyclo[6.4.0.0^2,6]dodeca-1(8),3,5-triene-4-carboxylic acid] |
| 1580 | COc1ccc2c(sc3nc(C(=O)O)cn32)c1Cl [Example 218, 9-Chloro-10-methoxy-7-thia-2,5-diazatricyclo[6.4.0.0^2,6]dodeca-1(8),3,5,9,11-pentaene-4-carboxylic acid] |
| 1150 | CC(=O)NCc1c(C(=O)O)nc2sc3c(n12)CCC(C(C)(C)C)C3 (centres unmarked) [Example 255, 10-tert-Butyl-3-(acetamidomethyl)-7-thia-2,5-diazatricyclo[6.4.0.0^2,6]dodeca-1(8),3,5-triene-4-carboxylic acid] |
| 1000 | O=C(O)c1cn2c(n1)sc1c(Cl)c(N3CCCC3)ccc12 [Example 248, 9-Chloro-10-(pyrrolidin-1-yl)-7-thia-2,5-diazatricyclo[6.4.0.0^2,6]dodeca-1(8),3,5,9,11-pentaene-4-carboxylic acid] |
| 830 | CC1(C)CCc2c(sc3nc(C(=O)O)cn23)C1 [Example 33, 10,10-Dimethyl-7-thia-2,5-diazatricyclo[6.4.0.0^2,6]dodeca-1(8),3,5-triene-4-carboxylic acid] |
| 780 | CN(C)Cc1c(C(=O)O)nc2sc3c(Cl)c(Cl)ccc3n12 [Example 203, 9,10-Dichloro-3-[(dimethylamino)methyl]-7-thia-2,5-diazatricyclo[6.4.0.0^2,6]dodeca-1(8),3,5,9,11-pentaene-4-carboxylic acid] |
| 460 | CC(C)(C)Nc1c(C(=O)O)nc2sc3c(n12)CCC(C(C)(C)C)C3 (centres unmarked) [Example 40, 10-tert-Butyl-3-(tert-butylamino)-7-thia-2,5-diazatricyclo[6.4.0.0^2,6]dodeca-1(8),3,5-triene-4-carboxylic acid] |
| 440 | CC1(C)Cc2c(sc3nc(C(=O)NS(C)(=O)=O)cn23)C1(C)C [Example 52, N-Methanesulfonyl-4,4,5,5-tetramethyl-7-thia-1,9-diazatricyclo[6.3.0.0^2,6]undeca-2(6),8,10-triene-10-carboxamide] |
| 360 | CC1(C)Cc2c(sc3nc(C(=O)O)cn23)C1(C)C [Example 36, 4,4,5,5-Tetramethyl-7-thia-1,9-diazatricyclo[6.3.0.0^2,6]undeca-2(6),8,10-triene-10-carboxylic acid] |
